# Assay results reported in patent US6914045B2, “Glycopeptide antibiotics” (Wyeth Holdings Corporation, priority 2001, dated 2005).
# How the values were obtained:
# Test in all cases: in vitro antibacterial evaluation, MIC by broth dilution
# Assay type in all cases: cell-based
# Enterococcus sp. = tested on: Enterococcus sp.
# Method in brief: (§1)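 MIC = lowest antibiotic concentration preventing visible growth; inoculum 5×10^5 CFU/mL; drug range 64-0.06 μg/mL; Muller-Hinton II […]; NCCLS M7-A2 guidance.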
# Staphylococcus sp. = conditions: broth dilution, 18 hours at 35° C.; for MIC Staphylococcus aureus (ATCC 29213): strain ATCC 29213; for MIC Staphylococcus aureus (GC 1131): strain GC 1131; for MIC Staphylococcus aureus (GC 3051): strain GC 3051; for MIC Staphylococcus aureus (GC 3053): strain GC 3053; for MIC Staphylococcus aureus (GC 4541): strain GC 4541; for MIC Staphylococcus aureus (GC 4542): strain GC 4542; for MIC Staphylococcus aureus (GC 4544): strain GC 4544; for MIC Staphylococcus aureus (GC 4545): strain GC 4545
# Method in brief: as §1
# Streptococcus sp. = tested on: Streptococcus sp.
# Method in brief: as §1
# Escherichia coli = conditions: 18 hours at 35° C.
# Method in brief: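 Broth dilution MIC per NCCLS M7-A2 in Mueller-Hinton II medium, inoculum 5×10^5 CFU/mL, antibiotic range 64-0.06 μg/mL. MIC taken as lowest concentration inhibiting growth.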
# [1] = broth dilution, 18 hours at 35° C.
smiles,measurement,setting,value
"CC(c1ccccc1)C1NC(=O)CNC(=O)C(CO)NC(=O)C(C(O)C2CN(c3nc4ccccc4s3)C(=N)N2C2OC(CO)C(O)C(O)C2O)NC(=O)C(C(O)C2CNC(=Nc3nc4ccccc4s3)N2)NC(=O)C(Cc2ccc(OC3OC(CO)C(OC4OC(CO)C(O)C(O)C4O)C(O)C3O)cc2)NC1=O (stereo not drawn) [Example 94, Cyclo[glycyl-β-methylphenylalanyl-O-(4-O-hexopyranosylhexopyranosyl)tyrosyl-3-[2-(1,3-benzothiazol-2-ylimino)imidazolidin-4-yl]seryl-3-[1-(1,3-benzo-thiazol-2-yl)-2-imino-3-hexopyranosylimidazolidin-4-yl]serylseryl]]",MIC Enterococcus avium (GC 4558),"Enterococcus sp.; Enterococcus avium (GC 4558); broth dilution, 18 hours at 35° C.",>64 µg/mL
same,MIC Enterococcus faecalis (ATCC 29212),"Enterococcus sp.; Enterococcus faecalis (ATCC 29212); broth dilution, 18 hours at 35° C.",>64 µg/mL
same,MIC Enterococcus faecalis (GC 4552),"Enterococcus sp.; Enterococcus faecalis (GC 4552); broth dilution, 18 hours at 35° C.",>64 µg/mL
same,MIC Enterococcus faecalis (GC 4553),"Enterococcus sp.; Enterococcus faecalis (GC 4553); broth dilution, 18 hours at 35° C.",>64 µg/mL
same,MIC Enterococcus faecalis (GC 4554),"Enterococcus sp.; Enterococcus faecalis (GC 4554); broth dilution, 18 hours at 35° C.",>64 µg/mL
same,MIC Enterococcus faecalis (GC 6189),"Enterococcus sp.; Enterococcus faecalis (GC 6189); broth dilution, 18 hours at 35° C.",>64 µg/mL
same,MIC Enterococcus faecium (GC 2243),"Enterococcus sp.; Enterococcus faecium (GC 2243); broth dilution, 18 hours at 35° C.",>64 µg/mL
same,MIC Enterococcus faecium (GC 4556),"Enterococcus sp.; Enterococcus faecium (GC 4556); broth dilution, 18 hours at 35° C.",>64 µg/mL
same,MIC Enterococcus faecium (GC 4557),"Enterococcus sp.; Enterococcus faecium (GC 4557); broth dilution, 18 hours at 35° C.",>64 µg/mL
same,MIC Enterococcus avium (GC 4558),Enterococcus sp.; [1],>64 µg/mL
same,MIC Enterococcus faecalis (ATCC 29212),Enterococcus sp.; [1],>64 µg/mL
same,MIC Enterococcus faecalis (GC 2242),Enterococcus sp.; [1],>64 µg/mL
same,MIC Enterococcus faecalis (GC 2691),Enterococcus sp.; [1],>64 µg/mL
same,MIC Enterococcus faecalis (GC 3059),Enterococcus sp.; [1],>64 µg/mL
same,MIC Enterococcus faecalis (GC 4552),Enterococcus sp.; [1],>64 µg/mL
same,MIC Enterococcus faecalis (GC 4553),Enterococcus sp.; [1],>64 µg/mL
same,MIC Enterococcus faecalis (GC 4554),Enterococcus sp.; [1],>64 µg/mL
same,MIC Enterococcus faecalis (GC 6189),Enterococcus sp.; [1],>64 µg/mL
same,MIC Enterococcus faecium (GC 2243),Enterococcus sp.; [1],>64 µg/mL
same,MIC Enterococcus faecium (GC 4556),Enterococcus sp.; [1],>64 µg/mL
same,MIC Enterococcus faecium (GC 4557),Enterococcus sp.; [1],>64 µg/mL
same,MIC Enterococcus faecalis (GC 2242),"Enterococcus sp.; broth dilution, 18 hours at 35° C.; strain GC 2242",>64 µg/mL
same,MIC Enterococcus faecalis (GC 2691),"Enterococcus sp.; broth dilution, 18 hours at 35° C.; strain GC 2691",>64 µg/mL
same,MIC Enterococcus faecalis (GC 3059),"Enterococcus sp.; broth dilution, 18 hours at 35° C.; strain GC 3059",>64 µg/mL
same,MIC Coagulase Negative Staphylococcus (GC 4547),Staphylococcus sp.,>64 µg/mL
same,MIC Coagulase Negative Staphylococcus (GC 4548),Staphylococcus sp.,>64 µg/mL
same,MIC Coagulase Negative Staphylococcus (GC 4549),Staphylococcus sp.,>64 µg/mL
same,MIC Coagulase Negative Staphylococcus (GC 4551),Staphylococcus sp.,>64 µg/mL
same,MIC Staphylococcus aureus-SMITH (GC 4543),Staphylococcus sp.,>64 µg/mL
same,MIC Staphylococcus haemolyticus (GC 4546),Staphylococcus sp.,>64 µg/mL
same,MIC Staphylococcus aureus (ATCC 29213),Staphylococcus sp.,>64 µg/mL
same,MIC Staphylococcus aureus (GC 1131),Staphylococcus sp.,>64 µg/mL
same,MIC Staphylococcus aureus (GC 3051),Staphylococcus sp.,>64 µg/mL
same,MIC Staphylococcus aureus (GC 3053),Staphylococcus sp.,>64 µg/mL
same,MIC Staphylococcus aureus (GC 4541),Staphylococcus sp.,>64 µg/mL
same,MIC Staphylococcus aureus (GC 4542),Staphylococcus sp.,>64 µg/mL
same,MIC Staphylococcus aureus-SMITH (GC 4543),Staphylococcus sp.; strain GC 4543,>64 µg/mL
same,MIC Staphylococcus aureus (GC 4544),Staphylococcus sp.,>64 µg/mL
same,MIC Staphylococcus aureus (GC 4545),Staphylococcus sp.,>64 µg/mL
same,MIC Staphylococcus haemolyticus (GC 4546),Staphylococcus sp.; strain GC 4546,>64 µg/mL
same,MIC Coagulase Negative Staphylococcus (GC 4547),Staphylococcus sp.; strain GC 4547,>64 µg/mL
same,MIC Coagulase Negative Staphylococcus (GC 4548),Staphylococcus sp.; strain GC 4548,>64 µg/mL
same,MIC Coagulase Negative Staphylococcus (GC 4549),Staphylococcus sp.; strain GC 4549,>64 µg/mL
same,MIC Coagulase Negative Staphylococcus (GC 4551),Staphylococcus sp.; strain GC 4551,>64 µg/mL
same,MIC Streptococcus agalactiae (GC 4564),Streptococcus sp.; [1],>64 µg/mL
same,MIC Streptococcus pneumoniae (ATCC 6301),Streptococcus sp.; [1],>64 µg/mL
same,MIC Streptococcus pneumoniae (GC 1894),Streptococcus sp.; [1],>64 µg/mL
same,MIC Streptococcus pneumoniae (GC 4565),Streptococcus sp.; [1],>64 µg/mL
same,MIC Streptococcus pyogenes (GC 4563),Streptococcus sp.; [1],>64 µg/mL
same,MIC Streptococcus pneumoniae (ATCC 6301),"Streptococcus sp.; broth dilution, 18 hours at 35° C.; strain ATCC 6301",>64 µg/mL
same,MIC Streptococcus pneumoniae (GC 1894),"Streptococcus sp.; broth dilution, 18 hours at 35° C.; strain GC 1894",>64 µg/mL
same,MIC Streptococcus pyogenes (GC 4563),"Streptococcus sp.; broth dilution, 18 hours at 35° C.; strain GC 4563",>64 µg/mL
same,MIC Streptococcus agalactiae (GC 4564),"Streptococcus sp.; broth dilution, 18 hours at 35° C.; strain GC 4564",>64 µg/mL
same,MIC Streptococcus pneumoniae (GC 4565),"Streptococcus sp.; broth dilution, 18 hours at 35° C.; strain GC 4565",>64 µg/mL
same,MIC Escherichia coli (ATCC 25922),Escherichia coli,>64 µg/mL
same,MIC Escherichia coli (GC 4559),Escherichia coli,>64 µg/mL
same,MIC Escherichia coli (GC 4560),Escherichia coli,64 µg/mL
"CC(c1ccccc1)C1NC(=O)CNC(=O)C(CO)NC(=O)C(C(O)C2CNC(=N)N2C2OC(CO)C(O)C(O)C2O)NC(=O)C(C(O)C2CNC(=N)N2)NC(=O)C(Cc2ccc3oc(=O)[nH]c3c2)NC1=O (stereo not drawn) [Example 22, Cyclo[3-(2,3-dihydro-2-oxo-1,3-benzoxazol-5-yl)alanyl-3-(2-iminoimidazolidin-4-yl)seryl-3-(3-hexopyranosyl-2-iminoimidazolidin-4-yl)serylserylglycyl-β-methylphenylalanyl]]",MIC Enterococcus faecalis (ATCC 29212),"Enterococcus sp.; strain ATCC 29212; broth dilution, 18 hours at 35° C.",>128 µg/mL
same,MIC Enterococcus faecalis (GC 2242),"Enterococcus sp.; strain GC 2242; broth dilution, 18 hours at 35° C.",>128 µg/mL
same,MIC Enterococcus faecium (GC 2243),"Enterococcus sp.; strain GC 2243; broth dilution, 18 hours at 35° C.",>128 µg/mL
same,MIC Enterococcus faecalis (GC 2691),"Enterococcus sp.; strain GC 2691; broth dilution, 18 hours at 35° C.",>128 µg/mL
same,MIC Enterococcus faecalis (GC 3059),"Enterococcus sp.; strain GC 3059; broth dilution, 18 hours at 35° C.",>128 µg/mL
same,MIC Enterococcus faecalis (GC 4552),"Enterococcus sp.; strain GC 4552; broth dilution, 18 hours at 35° C.",>128 µg/mL
same,MIC Enterococcus faecalis (GC 4553),"Enterococcus sp.; strain GC 4553; broth dilution, 18 hours at 35° C.",>128 µg/mL
same,MIC Enterococcus faecalis (GC 4554),"Enterococcus sp.; strain GC 4554; broth dilution, 18 hours at 35° C.",>128 µg/mL
same,MIC Enterococcus faecium (GC 4556),"Enterococcus sp.; strain GC 4556; broth dilution, 18 hours at 35° C.",>128 µg/mL
same,MIC Enterococcus faecium (GC 4557),"Enterococcus sp.; strain GC 4557; broth dilution, 18 hours at 35° C.",64 µg/mL
same,MIC Enterococcus avium (GC 4558),"Enterococcus sp.; strain GC 4558; broth dilution, 18 hours at 35° C.",>128 µg/mL
same,MIC Enterococcus faecalis (GC 6189),"Enterococcus sp.; strain GC 6189; broth dilution, 18 hours at 35° C.",>128 µg/mL
same,MIC Staphylococcus aureus (ATCC 29213),Staphylococcus sp.,>128 µg/mL
same,MIC Staphylococcus aureus (GC 1131),Staphylococcus sp.,>128 µg/mL
same,MIC Staphylococcus aureus (GC 3051),Staphylococcus sp.,>128 µg/mL
same,MIC Staphylococcus aureus (GC 3053),Staphylococcus sp.,>128 µg/mL
same,MIC Staphylococcus aureus (GC 4541),Staphylococcus sp.,>128 µg/mL
same,MIC Staphylococcus aureus (GC 4542),Staphylococcus sp.,>128 µg/mL
same,MIC Staphylococcus aureus-SMITH (GC 4543),Staphylococcus sp.; strain GC 4543,>128 µg/mL
same,MIC Staphylococcus aureus (GC 4544),Staphylococcus sp.,>128 µg/mL
same,MIC Staphylococcus aureus (GC 4545),Staphylococcus sp.,>128 µg/mL
same,MIC Staphylococcus haemolyticus (GC 4546),Staphylococcus sp.; strain GC 4546,>128 µg/mL
same,MIC Coagulase Negative Staphylococcus (GC 4547),Staphylococcus sp.; strain GC 4547,>128 µg/mL
same,MIC Coagulase Negative Staphylococcus (GC 4548),Staphylococcus sp.; strain GC 4548,128 µg/mL
same,MIC Coagulase Negative Staphylococcus (GC 4549),Staphylococcus sp.; strain GC 4549,64 µg/mL
same,MIC Coagulase Negative Staphylococcus (GC 4551),Staphylococcus sp.; strain GC 4551,>128 µg/mL
same,MIC Coagulase Negative Staphylococcus (GC 6257),Staphylococcus sp.; strain GC 6257,128 µg/mL
same,MIC Streptococcus pneumoniae (ATCC 6301),"Streptococcus sp.; strain ATCC 6301; broth dilution, 18 hours at 35° C.",8 µg/mL
same,MIC Streptococcus pneumoniae (GC 1894),"Streptococcus sp.; strain GC 1894; broth dilution, 18 hours at 35° C.",8 µg/mL
same,MIC Streptococcus pyogenes (GC 4563),"Streptococcus sp.; strain GC 4563; broth dilution, 18 hours at 35° C.",32 µg/mL
same,MIC Streptococcus agalactiae (GC 4564),"Streptococcus sp.; strain GC 4564; broth dilution, 18 hours at 35° C.",32 µg/mL
same,MIC Streptococcus pneumoniae (GC 4565),"Streptococcus sp.; strain GC 4565; broth dilution, 18 hours at 35° C.",8 µg/mL
same,MIC Escherichia coli (ATCC 25922),"Escherichia coli; strain ATCC 25922, broth dilution",>128 µg/mL
same,MIC Escherichia coli (GC 4559),"Escherichia coli; strain GC 4559, broth dilution",>128 µg/mL
same,MIC Escherichia coli (GC 4560),"Escherichia coli; strain GC 4560, broth dilution",>128 µg/mL
